Data published in article PMC6547681 (Nature Communications, 2019).
Where “and” joins values, the source holds several entries; their conditions need not be identical. Identical values can stand only once.

Test system: BCL-2 WT
Assay: Steady-state competition SPR against immobilised BIMBH3 peptide, BCL-2 WT
Format: binding, human
Method: SPR experiments were performed as previously described. […] The lowest concentrations used in direct binding experiments were 1 nM for BIAcore 4000 and 0.1 nM for BIAcore S200 instruments, concentrations below these were below the sensitivity thresholds for the instruments. […] Direct binding experiments were fitted to a 1:1 binding site kinetic model, fitting on and off rates, in BIAevaluation software. For competition experiments steady-state responses were determined in BIAevaluation software according to the software defaults in affinity evaluation mode averaging responses for 5 sec. […] All affinity measurements were performed in at least two independent experiments using independent protein preparations.

O=C(c1cc(-c2cc3c(cc2C(=O)N2Cc4ccccc4C[C@H]2CN2CCOCC2)OCO3)n2c1CCCC2)N(c1ccccc1)c1ccc(O)cc1 [S55746]
S55746 binding weaker than venetoclax (BCL-2 WT): > 10 fold and 10 fold
Raw data values in Figure 3f (SPR response) (S55746 concentration 20, BCL-2 concentration 1 nM, independent experiment 2): 2.733
Raw data values in Figure 3f (SPR response) (S55746 concentration 20, BCL-2 concentration 3 nM, independent experiment 2): 5.054
Raw data values in Figure 3f (SPR response) (S55746 concentration 20, BCL-2 concentration 4 nM, independent experiment 2): 7.385
Raw data values in Figure 3f (SPR response) (S55746 concentration 20, BCL-2 concentration 6 nM, independent experiment 2): 10.4479
Raw data values in Figure 3f (SPR response) (S55746 concentration 20, BCL-2 concentration 8 nM, independent experiment 2): 13.83
Raw data values in Figure 3f (SPR response) (S55746 concentration 20, BCL-2 concentration 9 nM, independent experiment 2): 18.2167
Raw data values in Figure 3f (SPR response) (S55746 concentration 20, BCL-2 concentration 10 nM, independent experiment 1): 14.9942
Raw data values in Figure 3f (SPR response) (S55746 concentration 20, BCL-2 concentration 10 nM, independent experiment 3): 5.545
Raw data values in Figure 3f (SPR response) (S55746 concentration 20, BCL-2 concentration 11 nM, independent experiment 2): 22.9055
Raw data values in Figure 3f (SPR response) (S55746 concentration 20, BCL-2 concentration 12 nM, independent experiment 2): 29.6258
Raw data values in Figure 3f (SPR response) (S55746 concentration 20, BCL-2 concentration 16 nM, independent experiment 2): 52.2757
Raw data values in Figure 3f (SPR response) (S55746 concentration 20, BCL-2 concentration 20 nM, independent experiment 1): 62.0337
Raw data values in Figure 3f (SPR response) (S55746 concentration 20, BCL-2 concentration 20 nM, independent experiment 3): 30.5673
Raw data values in Figure 3f (SPR response) (S55746 concentration 20, BCL-2 concentration 24 nM, independent experiment 2): 194.711
Raw data values in Figure 3f (SPR response) (S55746 concentration 20, BCL-2 concentration 30 nM, independent experiment 1): 78.5463
Raw data values in Figure 3f (SPR response) (S55746 concentration 20, BCL-2 concentration 30 nM, independent experiment 3): 46.9544
Raw data values in Figure 3f (SPR response) (S55746 concentration 20, BCL-2 concentration 40 nM, independent experiment 1): 84.3215
Raw data values in Figure 3f (SPR response) (S55746 concentration 20, BCL-2 concentration 40 nM, independent experiment 2): 278.992
Raw data values in Figure 3f (SPR response) (S55746 concentration 20, BCL-2 concentration 40 nM, independent experiment 3): 55.2753
Raw data values in Figure 3f (SPR response) (S55746 concentration 20, BCL-2 concentration 50 nM, independent experiment 1): 87.889
Raw data values in Figure 3f (SPR response) (S55746 concentration 20, BCL-2 concentration 50 nM, independent experiment 3): 61.4638
Raw data values in Figure 3f (SPR response) (S55746 concentration 20, BCL-2 concentration 60 nM, independent experiment 1): 89.8444
Raw data values in Figure 3f (SPR response) (S55746 concentration 20, BCL-2 concentration 60 nM, independent experiment 3): 66.5259
Raw data values in Figure 3f (SPR response) (S55746 concentration 20, BCL-2 concentration 70 nM, independent experiment 1): 91.3513
Raw data values in Figure 3f (SPR response) (S55746 concentration 20, BCL-2 concentration 70 nM, independent experiment 3): 70.0896
Raw data values in Figure 3f (SPR response) (S55746 concentration 20, BCL-2 concentration 80 nM, independent experiment 1): 91.9809
Raw data values in Figure 3f (SPR response) (S55746 concentration 20, BCL-2 concentration 80 nM, independent experiment 3): 71.977
Raw data values in Figure 3f (SPR response) (S55746 concentration 20, BCL-2 concentration 100 nM, independent experiment 1): 93.8895
Raw data values in Figure 3f (SPR response) (S55746 concentration 20, BCL-2 concentration 100 nM, independent experiment 3): 77.7314
Raw data values in Figure 3f (SPR response) (S55746 concentration 20, BCL-2 concentration 150 nM, independent experiment 1): 96.8618
Raw data values in Figure 3f (SPR response) (S55746 concentration 20, BCL-2 concentration 150 nM, independent experiment 3): 85.769
Raw data values in Figure 3f (SPR response) (S55746 concentration 20, BCL-2 concentration 200 nM, independent experiment 1): 97.7551
Raw data values in Figure 3f (SPR response) (S55746 concentration 20, BCL-2 concentration 200 nM, independent experiment 3): 90.6286
Raw data values in Figure 3f (SPR response) (S55746 concentration 40, BCL-2 concentration 1 nM, independent experiment 2): 1.748
Raw data values in Figure 3f (SPR response) (S55746 concentration 40, BCL-2 concentration 3 nM, independent experiment 2): 3.274
Raw data values in Figure 3f (SPR response) (S55746 concentration 40, BCL-2 concentration 4 nM, independent experiment 2): 4.7441
Raw data values in Figure 3f (SPR response) (S55746 concentration 40, BCL-2 concentration 6 nM, independent experiment 2): 5.884
Raw data values in Figure 3f (SPR response) (S55746 concentration 40, BCL-2 concentration 8 nM, independent experiment 2): 7.971
Raw data values in Figure 3f (SPR response) (S55746 concentration 40, BCL-2 concentration 9 nM, independent experiment 2): 9.582
Raw data values in Figure 3f (SPR response) (S55746 concentration 40, BCL-2 concentration 10 nM, independent experiment 1): 5.808
Raw data values in Figure 3f (SPR response) (S55746 concentration 40, BCL-2 concentration 10 nM, independent experiment 3): 2.581
Raw data values in Figure 3f (SPR response) (S55746 concentration 40, BCL-2 concentration 11 nM, independent experiment 2): 11.5501
Raw data values in Figure 3f (SPR response) (S55746 concentration 40, BCL-2 concentration 12 nM, independent experiment 2): 13.3285
Raw data values in Figure 3f (SPR response) (S55746 concentration 40, BCL-2 concentration 16 nM, independent experiment 2): 18.1319
Raw data values in Figure 3f (SPR response) (S55746 concentration 40, BCL-2 concentration 20 nM, independent experiment 1): 14.077
Raw data values in Figure 3f (SPR response) (S55746 concentration 40, BCL-2 concentration 20 nM, independent experiment 3): 5.653
Raw data values in Figure 3f (SPR response) (S55746 concentration 40, BCL-2 concentration 24 nM, independent experiment 2): 35.953
Raw data values in Figure 3f (SPR response) (S55746 concentration 40, BCL-2 concentration 30 nM, independent experiment 1): 36.4319
Raw data values in Figure 3f (SPR response) (S55746 concentration 40, BCL-2 concentration 30 nM, independent experiment 3): 15.4804
Raw data values in Figure 3f (SPR response) (S55746 concentration 40, BCL-2 concentration 40 nM, independent experiment 1): 75.4873
Raw data values in Figure 3f (SPR response) (S55746 concentration 40, BCL-2 concentration 40 nM, independent experiment 2): 135.922
Raw data values in Figure 3f (SPR response) (S55746 concentration 40, BCL-2 concentration 40 nM, independent experiment 3): 43.3243
Raw data values in Figure 3f (SPR response) (S55746 concentration 40, BCL-2 concentration 50 nM, independent experiment 1): 78.7968
Raw data values in Figure 3f (SPR response) (S55746 concentration 40, BCL-2 concentration 50 nM, independent experiment 3): 49.1674
Raw data values in Figure 3f (SPR response) (S55746 concentration 40, BCL-2 concentration 60 nM, independent experiment 1): 84.5822
Raw data values in Figure 3f (SPR response) (S55746 concentration 40, BCL-2 concentration 60 nM, independent experiment 3): 58.6901
Raw data values in Figure 3f (SPR response) (S55746 concentration 40, BCL-2 concentration 70 nM, independent experiment 1): 88.5391
Raw data values in Figure 3f (SPR response) (S55746 concentration 40, BCL-2 concentration 70 nM, independent experiment 3): 64.9952
Raw data values in Figure 3f (SPR response) (S55746 concentration 40, BCL-2 concentration 80 nM, independent experiment 1): 89.9035
Raw data values in Figure 3f (SPR response) (S55746 concentration 40, BCL-2 concentration 80 nM, independent experiment 3): 69.0967
Raw data values in Figure 3f (SPR response) (S55746 concentration 40, BCL-2 concentration 100 nM, independent experiment 1): 92.2307
Raw data values in Figure 3f (SPR response) (S55746 concentration 40, BCL-2 concentration 100 nM, independent experiment 3): 75.0006
Raw data values in Figure 3f (SPR response) (S55746 concentration 40, BCL-2 concentration 150 nM, independent experiment 1): 94.9838
Raw data values in Figure 3f (SPR response) (S55746 concentration 40, BCL-2 concentration 150 nM, independent experiment 3): 84.1638
Raw data values in Figure 3f (SPR response) (S55746 concentration 40, BCL-2 concentration 200 nM, independent experiment 1): 96.8989
Raw data values in Figure 3f (SPR response) (S55746 concentration 40, BCL-2 concentration 200 nM, independent experiment 3): 89.8321
Raw data values in Figure 3f (SPR response) (S55746 concentration 60, BCL-2 concentration 10 nM, independent experiment 1): 3.3753
Raw data values in Figure 3f (SPR response) (S55746 concentration 60, BCL-2 concentration 10 nM, independent experiment 3): 1.1233
Raw data values in Figure 3f (SPR response) (S55746 concentration 60, BCL-2 concentration 20 nM, independent experiment 1): 7.929
Raw data values in Figure 3f (SPR response) (S55746 concentration 60, BCL-2 concentration 20 nM, independent experiment 3): 2.648
Raw data values in Figure 3f (SPR response) (S55746 concentration 60, BCL-2 concentration 30 nM, independent experiment 1): 13.853
Raw data values in Figure 3f (SPR response) (S55746 concentration 60, BCL-2 concentration 30 nM, independent experiment 3): 4.966
Raw data values in Figure 3f (SPR response) (S55746 concentration 60, BCL-2 concentration 40 nM, independent experiment 1): 26.5524
Raw data values in Figure 3f (SPR response) (S55746 concentration 60, BCL-2 concentration 40 nM, independent experiment 3): 9.938
Raw data values in Figure 3f (SPR response) (S55746 concentration 60, BCL-2 concentration 50 nM, independent experiment 1): 51.4643
Raw data values in Figure 3f (SPR response) (S55746 concentration 60, BCL-2 concentration 50 nM, independent experiment 3): 23.6574
Raw data values in Figure 3f (SPR response) (S55746 concentration 60, BCL-2 concentration 60 nM, independent experiment 1): 75.6075
Raw data values in Figure 3f (SPR response) (S55746 concentration 60, BCL-2 concentration 60 nM, independent experiment 3): 44.7291
Raw data values in Figure 3f (SPR response) (S55746 concentration 60, BCL-2 concentration 70 nM, independent experiment 1): 83.0032
Raw data values in Figure 3f (SPR response) (S55746 concentration 60, BCL-2 concentration 70 nM, independent experiment 3): 55.5781
Raw data values in Figure 3f (SPR response) (S55746 concentration 60, BCL-2 concentration 80 nM, independent experiment 1): 87.1926
Raw data values in Figure 3f (SPR response) (S55746 concentration 60, BCL-2 concentration 80 nM, independent experiment 3): 62.5167
Raw data values in Figure 3f (SPR response) (S55746 concentration 60, BCL-2 concentration 100 nM, independent experiment 1): 90.81
